According to patent US8946299B2, “Use of calixarenes associated with an antibiotic in the treatment of bacterial infections” (Universite de Lorraine, priority 2011, dated 2015):

How the values were obtained:
Type in all cases: cell-based
[1] = tested on: Pseudomonas aeruginosa strain having a resistance to β-lactams, the trimethoprim-sulphamethoxazole combination and fosfomycin (PaR2); settings: antibiotic used alone; second figure of the cell; n = 4
Source text: (§1) Three reference strains were used, corresponding to those studied for the MICs and MBCs (Minimum Bactericidal Concentration): Escherichia coli ATCC 25922, Staphylococcus aureus ATCC 29213, Pseudomonas aeruginosa ATCC 27853. For each of these strains 3 corresponding clinical isolates were chosen, having various antibiotic-resistance profiles, routinely used in standard fashion: • EcR1, EcR2, EcR3; • SaR1, SaR3, SaR4; • PaR2, PaR3, PaR5.
(§2) 1.3. Procedure: Chessboard Technique
(§3) The bacterial suspension is transferred to a 15 mL Falcon tube, centrifuged for 10 min at 4500 g, then the pellet is re-suspended in 1 mL of sterile distilled water. Suitable dilutions are then prepared in order to obtain a bacterial inoculum between 5·10^5 and 5·10^6 CFU/mL.
(§4) The MICs of the antibiotics were previously determined for each strain, by the method of microdilution in a liquid medium (CLSI (Clinical and Laboratory Standards Institute), 2003).
(§5) The same procedure is followed for the Cx1. […] Thus 64 ATB/Cx1 combinations are obtained.
(§6) The final volume contained in each of the wells must be 100 μL. Two controls must be present on each plate: • column 1 and 12: medium control • column 2 and 11: medium+bacteria control
(§7) Cx1: […] in the wells of […], starting with the lowest concentration.
(§8) ATB: 25 μL in the wells of rows H to A (columns 3 to 11), starting with the lowest concentration.
(§9) 50 μL in each of the wells of columns 2 to 11.
(§10) D2: Reading the Turbidity at 540 Nm.
(§11) The FIC (Fractional Inhibitory Concentration Index) value is determined by the following formula:
(§12) [formula] MICA in combination MICA alone MICB in combination MICB alone
(§13) When FIC≦0.5, there is a synergistic effect between antibiotic A and antibiotic B.
(§14) When 0.5<FIC≦1, there is an additive effect between antibiotic A and antibiotic B.
(§15) When 1<FIC≦4, there is an indifferent effect between antibiotic A and antibiotic B.
(§16) When FIC>4, there is an antagonistic effect between antibiotic A and antibiotic B.
(§17) For each strain and each antibiotic/Cx1 combination, the experiments were repeated a minimum of 3 times.

[2] = tested on: EcR1: Penicillinase-Producing Escherichia coli without Associated Resistance; assay: Antibiogram by the disk diffusion technique; settings: for Results (diameter): Table A1, category from diameter vs Dmin Dmax
Description: (§18) 5. Identification and Antibiogram 5.1 EcR1: Penicillinase-Producing Escherichia coli without Associated Resistance
(§19) The bacterial and antibiogram identification is carried out by the VITEK 2 system (bioMérieux) and by the disk diffusion technique.

[3] = tested on: PaR2: Pseudomonas aeruginosa; settings: Table G1; strain PaR2
Description: 5.7 PaR2: Pseudomonas aeruginosa Having an Associated Resistance to the β-Lactams, the Trimethoprim-Sulphamethoxazole Combination and Fosfomycin The bacterial and antibiogram identification is carried out by the VITEK 2 system (bioMérieux) and by the disk diffusion technique

[4] = tested on: mucoid strain of Pseudomonas aeruginosa having a resistance to rifampicin and the trimethoprim-sulphamethoxazole combination (PaR5); assay: Chessboard technique: MICs alone and synergism of Cx1 combinations; settings: antibiotic used alone; second figure of the cell; n = 4
Source text: as §1, §2, §3, §4, §5, §6, §7, §8, §9, §10, §11, §12, §13, §14, §15, §16, §17

[5] = tested on: Pseudomonas aeruginosa strain ATCC 27853 (wild type); assay: as above; settings: antibiotic used alone; second figure of the cell; n = 4
Source text: as §1, §2, §3, §4, §5, §6, §7, §8, §9, §10, §11, §12, §13, §14, §15, §16, §17

[6] = tested on: Pseudomonas aeruginosa strain having a resistance to β-lactams (including the carbapenems), aminoglycosides, the trimethoprim-sulphamethoxazole combination and …; assay: as above; settings: antibiotic used alone; second figure of the cell; n = 4
Source text: as §1, §2, §3, §4, §5, §6, §7, §8, §9, §10, §11, §12, §13, §14, §15, §16, §17

[7] = tested on: PaR5: Pseudomonas aeruginosa; assay: Antibiogram by the disk diffusion technique; set-up: unit not given here; settings: Table I1; strain PaR5
[8] = tested on: EcR3: ESBL-Producing Escherichia coli; assay: Antibiogram by the disk diffusion technique; settings: Table C1; strain EcR3
Description: 5.3 EcR3: ESBL-Producing Escherichia coli with Associated Resistance to the Aminoglycosides, Rifampicin and the Trimethoprim-Sulphamethoxazole Combination
The bacterial and antibiogram identification is carried out by the VITEK 2 system (bioMérieux) and by the disk diffusion technique

[9] = tested on: SaR3: Meticillin-Resistant Staphylococcus aureus; assay: Antibiogram by the disk diffusion technique; settings: Table E1; strain SaR3
[10] = tested on: SaR1: Meticillin-Resistant Staphylococcus aureus without Associated Resistance; assay: Antibiogram by the VITEK 2 system; settings: Table D1; strain SaR1
Description: 5.4 SaR1: Meticillin-Resistant Staphylococcus aureus without Associated Resistance
The bacterial and antibiogram identification is carried out by the VITEK 2 system (bioMérieux)
February 2006: Detection of the gene mecA by the PCR technique: POSITIVE Expert finding July 2006: totally typical phenotype: modification of the PLPs The fluctuations relative to the type of associated resistance for certain strains between Tables D1 and D2 are due to the development of the French (CA-SFM), European (EUCAST) and American (CLSI) recommendations for the categorization of bacterial strains. 5.5 SaR3: Meticillin-Resistant Staphylococcus aureus Having an Associated Resistance to the Aminoglycosides and Fluoroquinolones The bacterial and antibiogram identification is carried out by the VITEK 2 system (bioMérieux) and by the disk diffusion technique

[11] = tested on: Escherichia coli, Staphylococcus aureus and Pseudomonas aeruginosa strains; assay: Chessboard technique, summary over all strains and combinations tested
Source text: as §1, §2
The FIC (Fractional Inhibitory Concentration Index) value is determined by the following formula: […]
as §17

[12] = tested on: ESBL-producing strain of Escherichia coli (EcR3); assay: Chessboard technique: MICs alone and synergism of Cx1 combinations; settings: antibiotic used alone; second figure of the cell; n = 4
Source text: as §1, §2, §3, §4, §5, §6, §7, §8, §9, §10, §11, §12, §13, §14, §15, §16, §17

[13] = tested on: cephalosporinase-hyperproducing strain of Escherichia coli (EcR2); assay: as above; settings: antibiotic used alone; second figure of the cell; n = 4
Source text: as §1, §2, §3, §4, §5, §6, §7, §8, §9, §10, §11, §12, §13, §14, §15, §16, §17

[14] = tested on: EcR1: Penicillinase-Producing Escherichia coli without Associated Resistance; assay: Antibiogram, MIC by the VITEK 2 system; settings: Table A1, category from MIC
Description: as §18, §19

[15] = tested on: EcR2: Cephalosporinase-Hyperproducing Escherichia coli; assay: Antibiogram by the disk diffusion technique; settings: Table B2; strain EcR2; diameters
Description: 5.2 EcR2: Cephalosporinase-Hyperproducing Escherichia coli Having an Associated Resistance to the Aminoglycosides, Quinolones and the Trimethoprim-Sulphamethoxazole Combination
The bacterial and antibiogram identification is carried out by the VITEK 1 system (bioMérieux) and by the disk diffusion technique

| Molecule | MIC (antibiotic) [1] [mg/L] | Results (diameter) [2] | Diameter ([2]; Table A1, disk diffusion) | diameter in mm ([2]; Table A2, diameter) [mm] | Diameter [3] | MIC (antibiotic) [4] [mg/L] | MIC (antibiotic) [5] [mg/L] | MIC (antibiotic) [6] [mg/L] | Diameter [7] | Diameter [8] | Diameter [9] | Diameter [10] | nature of the interaction between Cx1 and the antibiotic [11] | Initial MICs (antibiotic) [12] [mg/L] | Initial MICs (antibiotic) [13] [mg/L] | Results (MIC) [14] | diameter in mm [15] [mm] |
| --- | --- | --- | --- | --- | --- | --- | --- | --- | --- | --- | --- | --- | --- | --- | --- | --- | --- |
| Colimycin | 8 | Susceptible | 15 | 15 | 20 | 16 | 4 | 8 | 23 | 16 | – | – | – | – | – | – | – |
| Pristinamycin | – | – | – | – | – | – | – | – | – | – | 23 | 25 | – | – | – | – | – |
| CC(C)(O/N=C(\C(=O)N[C@@H]1C(=O)N2C(C(=O)[O-])=C(C[n+]3ccccc3)CS[C@H]12)c1csc(N)n1)C(=O)O [Ceftazidime] | 8 | – | – | – | – | 8 | 4 | 16 | – | – | – | – | synergism | 1 | 8 | Susceptible | 20 |
| NC[C@H]1O[C@H](O[C@H]2[C@H](O)[C@@H](O[C@H]3O[C@H](CO)[C@@H](O)[C@H](N)[C@H]3O)[C@H](N)C[C@@H]2N)[C@H](N)C[C@@H]1O [Tobramycin] | 1 | Susceptible | – | – | – | 1 | 0.5 | 64 | – | – | – | – | synergism | 4 | 4 | Susceptible | 10 |
